Source: patent US20050043381A1, “Aminopyrazole compounds” (AGOURON PHARMACEUTICALS, INC., priority 2003, published 2005)

Legend:
CA-46 (lymphoma) cells = assay: Whole cell checkpoint abrogation assay (CHK1 Mitotic Index ELISA); assay type: cell-based; details: @ 1 μM
Description: To examine the in vitro effects of CHK1 inhibitory compounds, an ELISA assay can be designed to monitor the abrogation of DNA damage-induced checkpoint control. The assay can be based on the trapping and detection of mitotic cells following DNA damage-induced arrest.
CA-46 (lymphoma) cells can be treated with a DNA damaging agent, such as camptothecin (Sigma), at 50 nM for 8 hours to induce DNA damage. The control compound or CHK1 inhibitor can be then added at increasing concentrations with Nocodazole (Sigma) at 0.1 μg/ml and plates can be incubated for 16 hours. Control cells, where only CHK1 inhibitors can be added, can be prepared as well to assure that the inhibitors alone have no effect on the cell cycle. The cells can be then harvested, washed with PBS, and crude acid extraction can be performed. Pellets can be resuspended in 80 μl of Acid Extraction Buffer (10 mM Hepes pH 7.9, 1.5 mM MgCl2, 10 mM KCl, 0.5 mM DTT, 1.5 mM PMSF, 0.4N sulfuric acid), vortexed briefly, and incubated for 30 minutes on ice. Samples can be then centrifuged and 75 μl of the supernatant can be transferred to a 96 well flat-bottom plate (VWR 3596). Next 15 μl Neutralizing Cocktail (# of samples×(10 μl 10N NaOH+5 μl 1M Tris Base) can be added to each well, and after mixing, 5 μl of this can be transferred to another 96 well plate with 100 μl 50 mM Tris base (pH 9.6) in each well. Samples can be dried overnight. The wells can be then washed with 200 μl ELISA wash buffer (PBS with 20 mM Tris pH 7.5, 0.05% Tween 20) 5 times and blocked with 200 μl blocking buffer (PBS with 20 mM Tris pH 7.5, 0.05% Tween 20, 3.5% Dry milk, 1.5% BSA. pH to 7.5 after preparation) for 1 hour at room temperature. Following wash and block, anti-phospho Histone H3 antibodies (Upstate USA, Inc., rabbit polyclonal) can be added at 0.5 μg/ml in block (100 μl per well) and incubated for 2 hours at room temperature. Wells can be washed again to remove unbound primary antibody and 100 μl alkaline phosphatase conjugated secondary antibodies at 0.3 mg/ml (Pierce, goat anti-rabbit IgG ([…]+L)) in block can be added for 1 hour at room temp. Wells can be washed 5 times to remove unbound secondary antibody, and washed again 3 times with PBS alone to remove detergents. Then 100 μl alkaline phosphatase substrate (Pierce 1-Step pNPP) can be added to wells. Plates can be protected from light and incubated at room temp for 1 hour. The OD can be read on Molecular Devices Vmax Kinetic Microplate Reader at 405 nm. The ratio of the OD (optical density) of a compound treated sample to the Nocodazole only treated sample (about 100% mitotic or abrogation) can be expressed in a percentage, and quantifies the percent abrogation of the checkpoint. The concentration at which a compound causes 50% abrogation of the checkpoint can be called the EC50. The raw OD values can be graphed in Excel, and an EC50 value can be generated using Kaleidograph software. Strong signal results from Nocodazole only treated cells, and equals 100% mitosis in this assay. Camptothecin+Nocodazole treated control samples have low signal, signifying no mitosis and therefore, no checkpoint abrogation. When potent CHK1 inhibitors are added to Camptothecin treated cells with Nocodazole, a high signal can be generated (generally in a dose dependent manner), due to the checkpoint abrogation activity caused by the combination treatment.

[1] = target: T1, full-length human CHK1 (FL-CHK1) (Homo sapiens, UniProt O14757); assay: FL-CHK1 assay (coupled spectrophotometric, Syntide-2); assay type: biochemical; details: FL-CHK1, 0.15 mM ATP
T1 construct: C-terminally His-tagged full-length human CHK1 (FL-CHK1); 6xHis (C); made in house
T1 sequence (O14757 1-476): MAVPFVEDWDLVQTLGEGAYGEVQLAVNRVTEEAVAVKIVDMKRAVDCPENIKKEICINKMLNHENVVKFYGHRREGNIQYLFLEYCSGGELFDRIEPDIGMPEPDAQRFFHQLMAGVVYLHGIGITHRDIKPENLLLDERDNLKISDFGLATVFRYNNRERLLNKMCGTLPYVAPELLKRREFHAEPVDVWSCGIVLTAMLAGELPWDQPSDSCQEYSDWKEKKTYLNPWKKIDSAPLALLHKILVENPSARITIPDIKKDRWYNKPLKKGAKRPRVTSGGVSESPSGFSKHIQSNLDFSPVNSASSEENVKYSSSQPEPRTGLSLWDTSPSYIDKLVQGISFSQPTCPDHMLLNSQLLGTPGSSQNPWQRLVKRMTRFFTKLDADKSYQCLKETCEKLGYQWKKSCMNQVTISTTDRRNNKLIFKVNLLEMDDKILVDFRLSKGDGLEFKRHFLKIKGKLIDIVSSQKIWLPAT
Excerpt: C-terminally His-tagged full-length human CHK1 (FL-CHK1) was expressed using the baculovirus/insect cell system. It contains 6 histidine residues (6 x His-tag) at the C-terminus of the 476 amino acid human CHK1. The protein was purified by conventional chromatographic techniques.
The production of ADP from ATP that accompanies phosphoryl transfer to the synthetic substrate peptide Syntide-2 (PLARTLSVAGLPGKK) was coupled to oxidation of NADH using phosphoenolpyruvate (PEP) through the actions of pyruvate kinase (PK) and lactic dehydrogenase (LDH). The oxidation of NADH was monitored by following the decrease of absorbance at 340 nm (ε340=6.22 cm^−1 mM^−1) using a HP8452 spectrophotometer. Typical reaction solutions contained: […] PEP; 0.15 mM NADH; 28 units of LDH/mL; 16 units of PK/mL; 3 mM DTT; 0.125 mM Syntide-2; 0.15 mM ATP; 25 mM MgCl2 in 50 mM TRIS, pH 7.5; and 400 mM NaCl. Assays were initiated with 10 nM of FL-CHK1. Ki values were determined by measuring initial enzyme activity in the presence of varying concentrations of test compounds. The data were analyzed using Enzyme Kinetic and Kaleidagraph software. […]

Oc1ccc(-c2ccc(-c3cc(Nc4ccc(CNC5CC5)nc4)n[nH]3)cc2)c(O)c1 [Example 24, 4′-[5-({6-[(cyclopropylamino)methyl]pyridin-3-yl}amino)-1H-pyrazol-3-yl]-1,1′-biphenyl-2,4-diol]
percent abrogation of the checkpoint (CA-46 (lymphoma) cells): 1% @ 1 μM
Ki [1]: 1 to 10 nM
